{"source": "patent US12144795B2", "about": "“Cannabidiol compositions having modified cannabinoid profiles” (priority 2018, dated 2024)", "test": "Stability studies of CBD prepared via Protocol 3 (crude, pure, 2x recrystallized; 5° C., 25° C./60% RH, 40° C./75% RH)", "type": "physicochemical", "data": [{"smiles": "C=C(C)[C@@H]1CCC(C)=C[C@H]1c1c(O)cc(CCCCC)cc1O", "note": "[Pure CBD (Recrystallized Twice)]", "values": [{"measurement": "Related substances by HPLC (low level): Δ9-Tetrahydrocannabinol", "setting": "25° C./60% RH, 0 month", "result": 11, "unit": "ppm"}, {"measurement": "Water content in % w/w", "setting": "25° C./60% RH, 0 month", "result": "<0.05", "unit": "%"}, {"measurement": "Appearance", "setting": "25° C./60% RH, 1 month", "result": "Off-White"}, {"measurement": "Assay by HPLC", "setting": "25° C./60% RH, 1 month", "result": 100.2, "unit": "%"}, {"measurement": "Each unspecified impurity", "setting": "25° C./60% RH, 1 month", "result": "<0.03% (ND)"}, {"measurement": "Related substances by HPLC (low level): Δ8-Tetrahydrocannabinol", "setting": "25° C./60% RH, 1 month", "result": 9, "unit": "ppm"}, {"measurement": "Related substances by HPLC (low level): Δ9-Tetrahydrocannabinol", "setting": "25° C./60% RH, 1 month", "result": 6, "unit": "ppm"}, {"measurement": "Related substances by HPLC: 4-Monobromo-CBD", "setting": "25° C./60% RH, 1 month", "result": "<0.03% (ND)"}, {"measurement": "Related substances by HPLC: Olivetol", "setting": "25° C./60% RH, 1 month", "result": "<0.03% (ND)"}, {"measurement": "Related substances by HPLC: Sum of impurities, ≥0.05%", "setting": "25° C./60% RH, 1 month", "result": "<0.05% (ND)"}, {"measurement": "Related substances by HPLC: Δ8-Tetrahydrocannabinol", "setting": "25° C./60% RH, 1 month", "result": "<0.02% (ND)"}, {"measurement": "Related substances by HPLC: Δ9-Tetrahydrocannabinol", "setting": "25° C./60% RH, 1 month", "result": "<0.02% (ND)"}, {"measurement": "Appearance", "setting": "25° C./60% RH, 2 months", "result": "Oft-White"}, {"measurement": "Assay by HPLC", "setting": "25° C./60% RH, 2 months", "result": 99.9, "unit": "%"}, {"measurement": "Each unspecified impurity", "setting": "25° C./60% RH, 2 months", "result": "<0.03% (ND)"}, {"measurement": "Related substances by HPLC (low level): Δ8-Tetrahydrocannabinol", "setting": "25° C./60% RH, 2 months", "result": 7, "unit": "ppm"}, {"measurement": "Related substances by HPLC (low level): Δ9-Tetrahydrocannabinol", "setting": "25° C./60% RH, 2 months", "result": 4, "unit": "ppm"}, {"measurement": "Related substances by HPLC: 4-Monobromo-CBD", "setting": "25° C./60% RH, 2 months", "result": "<0.03% (ND)"}, {"measurement": "Related substances by HPLC: Olivetol", "setting": "25° C./60% RH, 2 months", "result": "<0.03% (ND)"}, {"measurement": "Related substances by HPLC: Sum of impurities, ≥0.05%", "setting": "25° C./60% RH, 2 months", "result": "<0.05% (ND)"}, {"measurement": "Related substances by HPLC: Δ8-Tetrahydrocannabinol", "setting": "25° C./60% RH, 2 months", "result": "<0.02% (ND)"}, {"measurement": "Related substances by HPLC: Δ9-Tetrahydrocannabinol", "setting": "25° C./60% RH, 2 months", "result": "<0.02% (ND)"}, {"measurement": "Appearance", "setting": "25° C./60% RH, 3 months", "result": "White"}, {"measurement": "Assay by HPLC", "setting": "25° C./60% RH, 3 months", "result": 98.4, "unit": "%"}, {"measurement": "Each unspecified impurity: RRT~1.980", "setting": "25° C./60% RH, 3 months", "result": "RRT~1.980: 0.03%"}, {"measurement": "Related substances by HPLC (low level): Δ8-Tetrahydrocannabinol", "setting": "25° C./60% RH, 3 months", "result": 13, "unit": "ppm"}, {"measurement": "Related substances by HPLC (low level): Δ9-Tetrahydrocannabinol", "setting": "25° C./60% RH, 3 months", "result": "<4", "unit": "ppm"}, {"measurement": "Related substances by HPLC: 4-Monobromo-CBD", "setting": "25° C./60% RH, 3 months", "result": "<0.03% (ND)"}, {"measurement": "Related substances by HPLC: Olivetol", "setting": "25° C./60% RH, 3 months", "result": "<0.03% (ND)"}, {"measurement": "Related substances by HPLC: Sum of impurities, ≥0.05%", "setting": "25° C./60% RH, 3 months", "result": "<0.05", "unit": "%"}, {"measurement": "Related substances by HPLC: Δ8-Tetrahydrocannabinol", "setting": "25° C./60% RH, 3 months", "result": "<0.02% (ND)"}, {"measurement": "Related substances by HPLC: Δ9-Tetrahydrocannabinol", "setting": "25° C./60% RH, 3 months", "result": "<0.02% (ND)"}, {"measurement": "Related substances by HPLC (low level): Δ9-Tetrahydrocannabinol", "setting": "40° C./75% RH, 0 month", "result": 11, "unit": "ppm"}, {"measurement": "Water content in % w/w", "setting": "40° C./75% RH, 0 month", "result": "<0.05", "unit": "%"}, {"measurement": "Appearance", "setting": "40° C./75% RH, 1 month", "result": "Off-White"}, {"measurement": "Assay by HPLC", "setting": "40° C./75% RH, 1 month", "result": 99.5, "unit": "%"}, {"measurement": "Each unspecified impurity", "setting": "40° C./75% RH, 1 month", "result": "<0.03% (ND)"}, {"measurement": "Related substances by HPLC (low level): Δ8-Tetrahydrocannabinol", "setting": "40° C./75% RH, 1 month", "result": 6, "unit": "ppm"}, {"measurement": "Related substances by HPLC (low level): Δ9-Tetrahydrocannabinol", "setting": "40° C./75% RH, 1 month", "result": 4, "unit": "ppm"}, {"measurement": "Related substances by HPLC: 4-Monobromo-CBD", "setting": "40° C./75% RH, 1 month", "result": "<0.03% (ND)"}, {"measurement": "Related substances by HPLC: Olivetol", "setting": "40° C./75% RH, 1 month", "result": "<0.03% (ND)"}, {"measurement": "Related substances by HPLC: Sum of impurities, ≥0.05%", "setting": "40° C./75% RH, 1 month", "result": "<0.05% (ND)"}, {"measurement": "Related substances by HPLC: Δ8-Tetrahydrocannabinol", "setting": "40° C./75% RH, 1 month", "result": "<0.02% (ND)"}, {"measurement": "Related substances by HPLC: Δ9-Tetrahydrocannabinol", "setting": "40° C./75% RH, 1 month", "result": "<0.02% (ND)"}, {"measurement": "Appearance", "setting": "40° C./75% RH, 2 months", "result": "Off-White"}, {"measurement": "Assay by HPLC", "setting": "40° C./75% RH, 2 months", "result": 101.7, "unit": "%"}, {"measurement": "Each unspecified impurity", "setting": "40° C./75% RH, 2 months", "result": "<0.03% (ND)"}, {"measurement": "Related substances by HPLC (low level): Δ8-Tetrahydrocannabinol", "setting": "40° C./75% RH, 2 months", "result": 6, "unit": "ppm"}, {"measurement": "Related substances by HPLC (low level): Δ9-Tetrahydrocannabinol", "setting": "40° C./75% RH, 2 months", "result": "<4 ppm (3 ppm)"}, {"measurement": "Related substances by HPLC: 4-Monobromo-CBD", "setting": "40° C./75% RH, 2 months", "result": "<0.03% (ND)"}, {"measurement": "Related substances by HPLC: Olivetol", "setting": "40° C./75% RH, 2 months", "result": "<0.03% (ND)"}, {"measurement": "Related substances by HPLC: Sum of impurities, ≥0.05%", "setting": "40° C./75% RH, 2 months", "result": "<0.05% (ND)"}, {"measurement": "Related substances by HPLC: Δ8-Tetrahydrocannabinol", "setting": "40° C./75% RH, 2 months", "result": "<0.02% (ND)"}, {"measurement": "Related substances by HPLC: Δ9-Tetrahydrocannabinol", "setting": "40° C./75% RH, 2 months", "result": "<0.02% (ND)"}, {"measurement": "Appearance", "setting": "40° C./75% RH, 3 months", "result": "Off-white"}, {"measurement": "Assay by HPLC", "setting": "40° C./75% RH, 3 months", "result": 99.4, "unit": "%"}, {"measurement": "Each unspecified impurity: RRT~1.981", "setting": "40° C./75% RH, 3 months", "result": 0.03, "unit": "%"}, {"measurement": "Related substances by HPLC (low level): Δ8-Tetrahydrocannabinol", "setting": "40° C./75% RH, 3 months", "result": 14, "unit": "ppm"}, {"measurement": "Related substances by HPLC (low level): Δ9-Tetrahydrocannabinol", "setting": "40° C./75% RH, 3 months", "result": "<4", "unit": "ppm"}, {"measurement": "Related substances by HPLC: 4-Monobromo-CBD", "setting": "40° C./75% RH, 3 months", "result": "<0.03% (ND)"}, {"measurement": "Related substances by HPLC: Olivetol", "setting": "40° C./75% RH, 3 months", "result": "<0.03% (ND)"}, {"measurement": "Related substances by HPLC: Sum of impurities, ≥0.05%", "setting": "40° C./75% RH, 3 months", "result": "<0.05", "unit": "%"}, {"measurement": "Related substances by HPLC: Δ8-Tetrahydrocannabinol", "setting": "40° C./75% RH, 3 months", "result": "<0.02% (ND)"}, {"measurement": "Related substances by HPLC: Δ9-Tetrahydrocannabinol", "setting": "40° C./75% RH, 3 months", "result": "<0.02% (ND)"}, {"measurement": "Appearance", "setting": "40° C./75% RH, 5 months", "result": "Off-white"}, {"measurement": "Assay by HPLC", "setting": "40° C./75% RH, 5 months", "result": 98.9, "unit": "%"}, {"measurement": "Each unspecified impurity: RRT~0.956", "setting": "40° C./75% RH, 5 months", "result": 0.04, "unit": "%"}, {"measurement": "Related substances by HPLC (low level): Δ8-Tetrahydrocannabinol", "setting": "40° C./75% RH, 5 months", "result": 21, "unit": "ppm"}, {"measurement": "Related substances by HPLC (low level): Δ9-Tetrahydrocannabinol", "setting": "40° C./75% RH, 5 months", "result": "<4", "unit": "ppm"}, {"measurement": "Related substances by HPLC: 4-Monobromo-CBD", "setting": "40° C./75% RH, 5 months", "result": "<0.03% (ND)"}, {"measurement": "Related substances by HPLC: Olivetol", "setting": "40° C./75% RH, 5 months", "result": "<0.03% (ND)"}, {"measurement": "Related substances by HPLC: Sum of impurities, ≥0.05%", "setting": "40° C./75% RH, 5 months", "result": "<0.05", "unit": "%"}, {"measurement": "Related substances by HPLC: Δ8-Tetrahydrocannabinol", "setting": "40° C./75% RH, 5 months", "result": "<0.02% (ND)"}, {"measurement": "Related substances by HPLC: Δ9-Tetrahydrocannabinol", "setting": "40° C./75% RH, 5 months", "result": "<0.02% (ND)"}]}]}
